Results: patent publication US9663789B2, “PME-1 as a biomarker to predict and diagnose endometrial and breast cancer and gene silencing of PME-1 to inhibit epithelial to mesenchymal transition” (MEDICAL DIAGNOSTIC LABORATORIES, LLC, priority 2013, dated 2017)
Entries after “also recorded” stand apart in the source; their conditions may differ.

Tests used:
Type in all cases: cell-based, human
RL95-2 cells [1] = assay: Colony forming / invasive growth assay in Matrigel
Procedure: To determine if PME-1 contributes to the more invasive and metastatic phenotypes, we performed a colony forming assay in matrigel.
The 3D On Top Matrigel Assay was completed in 24 well dishes. Briefly, the bottoms of 24 well dishes were coated with 50 μl BD Matrigel Basement Matrix Phenol Red Free (BD Biosciences cat. #356237) and allowed to solidify at 37° C. 10^5 cells were suspended in 250 μl chilled medium containing either 10 ng/ml of TGF-b or vehicle and allowed to settle at 37° C. for 30 minutes. Chilled medium containing 10% of Matrigel was added by pipetting gently down the sidewall of the well and incubated at 37° C. for ten days changing top medium every second day. Colony counts were performed on the tenth day; averages were taken from three fields of view using a 10× objective. Experiment was repeated three times.

PME-1 = assay: Western blot of PME-1 protein in RL95-2 cells; conditions: GAPDH loading control
Procedure: We prepared RL95-2 cell lines expressing empty vector (control), over-expressing PME-1 (+PME-1), or expressing shRNA against PPME1, the gene that codes for PME-1 protein (−PME-1). Using these cells, we confirmed the appropriate level of PME-1 via real-time RT-PCR (data not shown) and Western blot analysis (FIG. 8). GAPDH was used as a loading control.
We also prepared two different shRNAs targeted against PME-1.
(§1) 15 μg of protein was used for western analysis. PME-1 antibody (Santa Cruz) and COXIV (Cell Signaling Technologies) were used for detection of proteins and the blots were developed using chemiluminescence (Pierce ECL Western Blotting Substrate—Thermo Scientific) on the GE ImageQuant LAS 4000. For analysis of Akt, ERK, and β-catenin signaling in tissue culture, western analyses were completed as follows. RL95-2 cells stably infected with lentivirus expressing constructs were selected with puromycin (Invivogen). The cells were incubated with either 50 μM Akt inhibitor (LY 294002, Cell Signaling Technologies) or 40 μM ERK inhibitor (V0126, Cell Signaling Technologies) for 1-2 hours at 37° C. 1.5× Laemelli buffer (0.5 M Tris pH6.8, […], 10% sodium dodecyl sulfate, 100 mM EDTA) was used to prepare cell lysates. 20 μg of protein was used for western analysis. […]

WNT3A = assay: qRT-PCR of WNT3A expression in RL95-2 cells; conditions: RL95-2, qRT-PCR normalized to 18S
Procedure: (§2) Using RL95-2 endometrial cancer cells, we overexpressed PME-1 (FIG. 21A) or depleted PME-1 with shRNA targeted to PME-1 (SEQ ID NO: 2) (FIG. 21B) and confirmed that PME-1 was appropriately expressed.
(§3) Total RNA was extracted with Qiagen RNAEasy kit from RL95-2 cells. cDNA was synthesized using 500 ng-1 μg of RNA and SuperScript VILO c-DNA mix (Life Technologies). Taqman probes and PCR-mix were purchased from Life Technologies. All samples were run in triplicates. Results are representative of three independent experiments in which genes of interest were normalized to the house-keeping gene, 18S or GAPDH, where fold-change was calculated using the ddCt method.

RL95-2 cells [2] = assay: Foci formation assay, RL95-2 cells; conditions: RL95-2 cells expressing shRNA, compared to control cells
Procedure: A foci forming assay was used to monitor cell growth. Equal amounts of tumor cells were plated and they were allowed to grow for a determined period of time (see Materials and Methods section for details). The foci that were formed were then stained with the crystal violet dye. Cells were washed 3 times with PBS prior to visualization. Numbers of foci were counted and results were averaged among different experiments.
To determine if the loss of active PME-1 accounted for the observed decrease in foci formation, we first treated RL95-2 cells with siRNA against the 3′-UTR of PPME1 (SEQ ID NO: 5 and SEQ ID NO: 6) to decrease endogenous levels of PME-1. […] The S156A PME-1 mutant is not capable of de methylaing its target, PP2A.
1,000 cells were plated in a six well tissue culture dish in selection media (to include 5 μg/ml puromycin) (InvivoGen). Cells were allowed to adhere and grow in a 5% CO2, 37° C. incubator for 10 to 14 days. Media was replaced every fourth day. Cells were stained with 1% crystal violet (Sigma Aldrich) for five minutes and rinsed with PBS. Colonies were counted and data is presented as the percentage of change compared to the control. All Experiments were repeated at least three times.

Akt = assay: Western analysis of phospho-Akt in RL95-2 cells; conditions: RL95-2, PME-1 knocked down
Procedure: We observed a similar trend for the Akt signaling pathway. There was an increase in phosphorylation of Akt on threonine 308 (T308) when PME-1 was over-expressed compared to control. […] PME-1 over-expression specifically increases the phosphorylation of Akt on T308, but not serine 473 (S473).
as §1

SFRP1 = assay: qRT-PCR of SFRP1 expression in RL95-2 cells; conditions: RL95-2, qRT-PCR normalized to 18S
Procedure: as §2, §3

PP2A = PP2A phosphatase assay on RL95-2 whole cell lysates; conditions: RL95-2 cells, vs control (non-targeting)
Excerpt: Because PME-1 is a known inhibitor of PP2A, we confirmed in this study that depletion of PME-1 by siRNA led to an increase in PP2A activity in cells. To do so, we treated RL95-2 cells with either non-targeting siRNA (Control) or siRNA targeted against PPME1 (e.g., SEQ ID NO: 5 and SEQ ID NO: 6). PP2A activity was monitored using a phosphatase assay (R&D Systems Duo IC Set phosphatase assay kit). In the phosphatase assay, we used […] of whole cell extract and followed the manufacturer's recommendations.
Whole cell lysates were used with the DuoSet IC PP2A Phosphatase Assay Kit (R&D Systems). Procedure was carried out as per kit instructions with 500 μg protein and the absorbance was measured at 620 nm. The assay was repeated twice with similar results.

PPME1 mRNA = assay: qRT-PCR of PME-1 (PPME1) expression in RL95-2 cells; conditions: RL95-2 cells stably expressing shRNA, vs shSCR
Procedure: as §2, §3

WNT3 = assay: qRT-PCR of WNT3 expression in RL95-2 cells; conditions: RL95-2, qRT-PCR normalized to 18S
Procedure: as §2, §3

DcR2 = assay: Senescence assay: Western blot for DcR2 in RL95-2 cells; conditions: RL95-2 cell lysates
Procedure: We next analyzed cell lysates taken from RL95-2 cells that expressed either empty vector (Control), overexpressed PME-1 (+PME-1) or expressed shRNA against PME-1 (−PME-1) for DcR2 protein.
15 μg of protein was used for western analysis. PME-1 antibody (Santa Cruz) and COXIV (Cell Signaling Technologies) were used for detection of proteins and the blots were developed using chemiluminescence (Pierce ECL Western Blotting Substrate—Thermo Scientific) on the GE ImageQuant LAS 4000. For analysis of Akt, ERK, and β-catenin signaling in tissue culture, western analyses were completed as follows. RL95-2 cells stably infected with lentivirus expressing constructs were selected with puromycin (Invivogen). The cells were incubated with either 50 μM Akt inhibitor (LY 294002, Cell Signaling Technologies) or 40 μM ERK inhibitor (V0126, Cell Signaling Technologies) for 1-2 hours at 37° C. 1.5× Laemelli buffer (0.5 M Tris pH6.8, […], 10% sodium dodecyl sulfate, 100 mM EDTA) was used to prepare cell lysates. 20 μg of protein was used for western analysis. Primary antibodies used were: P-Akt (Ser473), P-Akt (Thr308), pan-Akt, P-ERK (Thr202/204), total ERK (Cell Signaling Technologies), PME-1 (Santa Cruz), phospho-β-catenin (Ser45, Cell Signaling Technologies), phospho-β-catenin (Ser33/37/Thr41, Cell Signaling Technologies), β-catenin (Abcam), DcR2 (Abcam), and GAPDH (Abcam). […]

Substance: shRNA (SEQ ID NO: 2): lentiviral shRNA against PPME1, target sequence SEQ ID NO: 2 GCAGCGATTATTAGTAGAGTT, bp 289-309; hairpin SEQ ID NO: 8 (CCGGGCAGCGATTATTAGTAGAGTTCTCGAGAACTCTACTAATAATCGCTGCTTTTT; listed as Homo sapiens)
- colony number and size in Matrigel (RL95-2 cells [1]; RL95-2, −TGF-β, compared to control cells): fewer and smaller colonies
- decrease in colony formation (RL95-2 cells [1]; RL95-2 in Matrigel, 10 days, vs control cells): 50%
- PME-1 levels by Western blot analysis (PME-1): significantly decreased PME-1 levels
- WNT3A expression (WNT3A): significantly decreased
- decrease in foci (RL95-2 cells [2]): 75%
- phosphorylation of Akt (Western) (Akt): decrease in phosphorylation of Akt
- SFRP1 expression (SFRP1): significantly increased; also recorded: significant increase in SFRP1 expression
- increase in PP2A phosphatase activity (PP2A): 30 fold
- PME-1 knocked down (qRT-PCR, normalized to 18S) (PPME1 mRNA): > 50%
- WNT3 expression (WNT3): significantly decreased
- senescent marker protein DcR2 (Western) (DcR2): increase in the senescent marker protein, DcR2
